Experimental data from BindingDB's records for doi:10.1016/0196-9781(94)90118-x (Tulane University, 1994).
pKi: −log10 of the molar value. Positions of bridges follow the written chain, without caps; N, C: chain ends. Non-standard residues stand in square brackets, D forms with d. Residues, ends and D or L forms follow the SMILES beside them. ξ: configuration not given here. 2Nal = N[C@@H](Cc1ccc2ccccc2c1)C(=O)O; d2Nal = N[C@H](Cc1ccc2ccccc2c1)C(=O)O; ξPhg = NC(C(=O)O)c1ccccc1; Abu = CC[C@H](N)C(=O)O

How the values were obtained:
[1] = biological target: Somatostatin receptor type 3 (Rattus norvegicus, UniProt P30936)
Chain of Somatostatin receptor type 3 (P30936 whole entry): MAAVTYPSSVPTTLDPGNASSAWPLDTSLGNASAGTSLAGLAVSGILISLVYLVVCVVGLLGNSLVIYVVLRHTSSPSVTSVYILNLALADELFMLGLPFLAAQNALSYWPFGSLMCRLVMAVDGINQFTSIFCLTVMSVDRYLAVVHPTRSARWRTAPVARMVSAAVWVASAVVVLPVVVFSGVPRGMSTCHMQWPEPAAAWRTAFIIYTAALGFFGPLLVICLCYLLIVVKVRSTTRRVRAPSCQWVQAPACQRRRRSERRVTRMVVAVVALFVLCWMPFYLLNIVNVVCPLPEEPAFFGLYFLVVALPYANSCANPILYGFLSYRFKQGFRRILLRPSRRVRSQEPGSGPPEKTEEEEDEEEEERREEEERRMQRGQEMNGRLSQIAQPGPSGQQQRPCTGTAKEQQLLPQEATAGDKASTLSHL

[2] = biological target: Somatostatin receptor type 2 (Rattus norvegicus, UniProt P30680)
Chain of Somatostatin receptor type 2 (P30680 whole entry): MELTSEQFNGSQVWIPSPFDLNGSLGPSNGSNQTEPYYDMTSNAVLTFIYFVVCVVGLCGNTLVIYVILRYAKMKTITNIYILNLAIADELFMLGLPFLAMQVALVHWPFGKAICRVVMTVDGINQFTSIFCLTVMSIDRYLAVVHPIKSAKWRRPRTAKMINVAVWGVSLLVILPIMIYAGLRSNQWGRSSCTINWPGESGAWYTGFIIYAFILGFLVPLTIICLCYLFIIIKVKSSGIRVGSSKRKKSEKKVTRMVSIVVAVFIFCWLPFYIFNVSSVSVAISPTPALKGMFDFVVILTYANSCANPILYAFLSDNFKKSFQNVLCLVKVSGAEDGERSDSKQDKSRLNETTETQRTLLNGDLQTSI

[3] = biological target: Somatostatin receptor type 1 (Rattus norvegicus, UniProt P28646)
Chain of Somatostatin receptor type 1 (P28646 whole entry): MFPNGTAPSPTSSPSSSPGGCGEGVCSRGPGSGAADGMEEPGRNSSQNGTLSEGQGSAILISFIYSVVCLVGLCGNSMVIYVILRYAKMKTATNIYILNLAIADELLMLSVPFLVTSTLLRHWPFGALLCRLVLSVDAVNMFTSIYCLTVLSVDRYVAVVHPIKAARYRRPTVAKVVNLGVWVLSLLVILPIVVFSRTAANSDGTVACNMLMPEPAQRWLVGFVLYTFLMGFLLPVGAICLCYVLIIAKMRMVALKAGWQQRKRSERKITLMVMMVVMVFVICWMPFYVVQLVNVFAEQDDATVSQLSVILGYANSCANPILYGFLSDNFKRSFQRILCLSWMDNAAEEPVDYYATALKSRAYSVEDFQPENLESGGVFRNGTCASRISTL

[4] = biological target: Somatostatin receptor type 4 (Rattus norvegicus, UniProt P30937)
Chain of Somatostatin receptor type 4 (P30937 whole entry): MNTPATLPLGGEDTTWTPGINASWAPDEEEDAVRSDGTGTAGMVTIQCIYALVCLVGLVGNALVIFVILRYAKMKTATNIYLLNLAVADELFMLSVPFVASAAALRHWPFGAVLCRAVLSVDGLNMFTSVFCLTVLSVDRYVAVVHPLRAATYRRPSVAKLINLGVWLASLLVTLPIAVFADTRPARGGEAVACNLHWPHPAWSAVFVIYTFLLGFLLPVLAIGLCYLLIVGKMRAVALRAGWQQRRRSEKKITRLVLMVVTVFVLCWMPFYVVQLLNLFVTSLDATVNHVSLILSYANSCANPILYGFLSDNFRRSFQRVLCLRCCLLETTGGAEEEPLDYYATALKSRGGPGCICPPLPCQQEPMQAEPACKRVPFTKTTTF

[5] = biological target: T1, Somatostatin receptor type 5 (Rattus norvegicus, UniProt P30938)
T1 sequence (P30938 whole entry): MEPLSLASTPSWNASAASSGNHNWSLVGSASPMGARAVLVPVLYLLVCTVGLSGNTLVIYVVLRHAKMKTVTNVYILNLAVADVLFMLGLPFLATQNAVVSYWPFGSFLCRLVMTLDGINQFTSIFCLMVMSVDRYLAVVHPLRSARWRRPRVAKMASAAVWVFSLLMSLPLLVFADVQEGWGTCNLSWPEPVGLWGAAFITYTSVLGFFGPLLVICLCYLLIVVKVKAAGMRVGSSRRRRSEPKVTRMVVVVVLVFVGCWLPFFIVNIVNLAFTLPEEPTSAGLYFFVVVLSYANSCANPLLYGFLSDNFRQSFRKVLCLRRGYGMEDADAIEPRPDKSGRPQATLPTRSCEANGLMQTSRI

Compound	pKi [1]	pKi [2]	pKi [3]	pKi [4]	pKi [5]
CC(C)[C@H](NC(=O)[C@H](CCCCN)NC(=O)[C@@H](Cc1c[nH]c2ccccc12)NC(=O)[C@H](Cc1ccc(O)cc1)NC(=O)[C@H](Cc1ccccc1)NC(=O)[C@H](N)Cc1ccccc1)C(=O)N[C@@H](Cc1ccccc1)C(=O)N[C@H](C(N)=O)[C@@H](C)O [D-Phe-Phe-Tyr-D-Trp-Lys-Val-Phe-Thr-NH2] (H-[dF]FY[dW]KVFT-NH2)	10.52	7.34	< 5.00	8.92	–
CC(C)[C@H](NC(=O)[C@H](CCCCN)NC(=O)[C@@H](Cc1c[nH]c2ccccc12)NC(=O)[C@H](Cc1ccc(O)cc1)NC(=O)[C@H](Cc1ccccc1)NC(=O)[C@H](N)Cc1ccccc1)C(=O)N[C@@H](Cc1ccccc1)C(=O)N[C@H](Cc1ccc2ccccc2c1)C(N)=O [CAS_150155-61-6] (H-[dF]FY[dW]KVF[d2Nal]-NH2)	10.70	6.00	< 5.00	7.37	6.80
CC(C)[C@H](NC(=O)[C@H](CCCCN)NC(=O)[C@H](Cc1c[nH]c2ccccc12)NC(=O)[C@H](Cc1ccc(O)cc1)NC(=O)[C@@H](N)CS)C(=O)N[C@@H](CS)C(=O)N[C@H](C(N)=O)[C@@H](C)O [D-Nal-Cys-Tyr-D-Trp-Lys-Val-Cys-Thr-NH2] (H-CYWKVCT-NH2)	–	–	–	–	6.00
C[C@@H](O)[C@H](NC(=O)[C@H](Cc1ccccc1)NC(=O)[C@@H](NC(=O)[C@H](CCCCN)NC(=O)[C@@H](Cc1c[nH]c2ccccc12)NC(=O)[C@H](Cc1ccccc1)NC(=O)[C@H](Cc1ccccc1)NC(=O)[C@H](N)Cc1ccccc1)[C@@H](C)O)C(N)=O [CAS_133073-82-2] (H-[dF]FF[dW]KTFT-NH2)	9.38	7.49	–	–	7.74
CC(C)[C@H](NC(=O)[C@H](CCCCN)NC(=O)[C@H](Cc1c[nH]c2ccccc12)NC(=O)[C@H](Cc1ccc(O)cc1)NC(=O)[C@H](Cc1ccccc1)NC(=O)C(N)c1ccccc1)C(=O)N[C@@H](Cc1ccccc1)C(=O)N[C@H](C(N)=O)[C@@H](C)O (stereo partly drawn) [D-Phe-Phe-Tyr-D-Trp-Lys-Val-Phe-Thr-NH2] (H-[ξPhg]FYWKVFT-NH2)	–	–	–	–	7.11
CC[C@@H]1NC(=O)[C@H](CCCCN)NC(=O)[C@@H](Cc2c[nH]c3ccccc23)NC(=O)[C@H](Cc2ccc(O)cc2)NC(=O)[C@@H](NC(=O)[C@H](N)Cc2ccccc2)CSSC[C@@H](C(=O)N[C@@H](Cc2ccc3ccccc3c2)C(N)=O)NC1=O [D-Phe-Cys-Tyr-D-Trp-Lys-Abu-Cys-Nal-NH] (H-[dF]CY[dW]K[Abu]C[2Nal]-NH2; disulfide 2-7)	7.96	11.00	< 5.00	–	–
CC(C)[C@@H]1NC(=O)[C@H](CCCCN)NC(=O)[C@@H](Cc2c[nH]c3ccccc23)NC(=O)[C@H](Cc2ccc(O)cc2)NC(=O)[C@@H](NC(=O)[C@H](N)Cc2ccc3ccccc3c2)CSSC[C@@H](C(=O)N[C@H](C(N)=O)[C@@H](C)O)NC1=O [D-Nal-Cys-Tyr-D-Trp-Lys-Val-Cys-Thr-NH2]	8.31	8.80	< 5.00	–	–
